Data from patent publication US20120214847A1, “2-[1-PHENYL-5-HYDROXY-4a-SUBSTITUTED-HEXAHYDROCYCLOPENTA[F]INDAZOL-5-YL]ETHYL PHENYL DERIVATIVES AS GLUCOCORTICOID RECEPTOR LIGANDS” (Merck Sharp & Dohme Corp., priority 2009, published 2012).
pEC50: −log10 of the molar value.

Molecular target: T1, human GR (Homo sapiens, UniProt P04150)
T1 construct: naturally expresses the human GR; endogenous in cells
T1 sequence (P04150 1-777): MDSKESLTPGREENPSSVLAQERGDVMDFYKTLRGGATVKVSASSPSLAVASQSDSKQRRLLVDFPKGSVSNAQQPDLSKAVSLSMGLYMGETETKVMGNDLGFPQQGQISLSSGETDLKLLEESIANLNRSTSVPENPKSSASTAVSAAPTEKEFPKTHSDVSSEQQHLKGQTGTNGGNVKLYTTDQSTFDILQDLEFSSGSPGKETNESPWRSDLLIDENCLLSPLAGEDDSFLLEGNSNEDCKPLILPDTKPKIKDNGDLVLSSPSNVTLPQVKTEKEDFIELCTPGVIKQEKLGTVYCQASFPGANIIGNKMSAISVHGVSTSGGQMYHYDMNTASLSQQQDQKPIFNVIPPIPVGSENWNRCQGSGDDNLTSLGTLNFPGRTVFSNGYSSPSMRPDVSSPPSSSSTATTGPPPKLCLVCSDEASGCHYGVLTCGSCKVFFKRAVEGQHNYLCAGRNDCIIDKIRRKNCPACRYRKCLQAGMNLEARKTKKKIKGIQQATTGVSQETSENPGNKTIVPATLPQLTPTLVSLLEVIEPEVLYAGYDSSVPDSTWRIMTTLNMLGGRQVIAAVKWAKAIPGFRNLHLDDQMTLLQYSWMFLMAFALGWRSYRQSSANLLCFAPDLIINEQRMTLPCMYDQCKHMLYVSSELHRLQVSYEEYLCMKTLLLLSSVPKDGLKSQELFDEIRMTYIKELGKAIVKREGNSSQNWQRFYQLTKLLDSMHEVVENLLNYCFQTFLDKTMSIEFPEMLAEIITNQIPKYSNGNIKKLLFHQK
Test: Trans-activation modulation of glucocorticoid receptor (GRAMMER), MMTV-LUC reporter in A549 cells
Assay type: cell-based
Settings: for Transactivation A549 Cells Grammer Emax (%) / Emax: Emax relative to the activity obtained with 300 nM dexamethasone; for Transactivation A549 Cells Grammer Emax (%) / pEC50: A549 cells; for pEC50: IP = inflection point, read-out: Transactivation A549 Cells Grammer IP; for Emax: A549, A549 cells, read-out: Transactivation A549 Cells Grammer Emax (%)

| Compound | Transactivation A549 Cells Grammer Emax (%) | pEC50 | Emax [%] |
| --- | --- | --- | --- |
| NC(=O)C(O)c1ccccc1CC[C@]1(O)CCC2=Cc3c(cnn3-c3ccc(F)cc3)C[C@@]21C1CC1 (single isomer, unassigned) [Example 3a] | 7 | 6.90 |  |
| OC(C[C@]1(O)CCC2=Cc3c(cnn3-c3ccc(F)cc3)C[C@@]21C1CC1)c1ccc(F)cn1 (single isomer, unassigned) [Example 79b] | 8 | 7.34 |  |
| CC[C@]12Cc3cnn(-c4ccccc4)c3C=C1CC[C@@]2(O)CC(O)c1ccccn1 (single isomer, unassigned) [Example 82a] | 20 | 6.55 |  |
| CC[C@]12Cc3cnn(-c4ccccc4)c3C=C1CC[C@@]2(O)CC(O)c1ccccn1 (single isomer, unassigned) [Example 82b] | 10 | 6.76 |  |
| OCc1ccccc1CC[C@]1(O)CCC2=Cc3c(cnn3-c3ccc(F)cc3)C[C@@]21C1CC1 [Example 2, (4aR,5R)-4a-Cyclopropyl-1-(4-fluorophenyl)-5-{2-[2-(hydroxymethyl)phenyl]ethyl}-1,4,4a,5,6,7-hexahydrocyclopenta[f]indazol-5-ol] |  | 7.66 | 24 |
| CC[C@]12Cc3cnn(-c4ccc(F)cc4)c3C=C1CC[C@@]2(O)CCc1ncccc1S(C)(=O)=O [Example 80, (4aS,5R)-4a-Ethyl-1-(4-fluorophenyl)-5-{2-[3-(methylsulfonyl)pyridin-2-yl]ethyl}-1,4,4a,5,6,7-hexahydrocyclopenta[f]indazol-5-ol] |  | 7.25 | 38 |
| CC[C@]12Cc3cnn(-c4ccccc4)c3C=C1CC[C@@]2(O)CCc1ncccc1S(=O)(=O)C(C)C [Example 81, (4aS,5R)-4a-Ethyl-5-{2-[3-(iso-propylsulfonyl)pyridin-2-yl]ethyl}-1-phenyl-1,4,4a,5,6,7-hexahydrocyclopenta[f]indazol-5-ol] |  | 7.02 | 36 |
